The structures appear in SMILES notation. Bounds are passed on as bounds.

In the first test the target is T1, human DGKζ (Homo sapiens, UniProt Q13574).
T1 construct: made in house; host or cells: Sf9 insect cells, baculovirus
T1 sequence (Q13574 with tags, fused parts or gaps): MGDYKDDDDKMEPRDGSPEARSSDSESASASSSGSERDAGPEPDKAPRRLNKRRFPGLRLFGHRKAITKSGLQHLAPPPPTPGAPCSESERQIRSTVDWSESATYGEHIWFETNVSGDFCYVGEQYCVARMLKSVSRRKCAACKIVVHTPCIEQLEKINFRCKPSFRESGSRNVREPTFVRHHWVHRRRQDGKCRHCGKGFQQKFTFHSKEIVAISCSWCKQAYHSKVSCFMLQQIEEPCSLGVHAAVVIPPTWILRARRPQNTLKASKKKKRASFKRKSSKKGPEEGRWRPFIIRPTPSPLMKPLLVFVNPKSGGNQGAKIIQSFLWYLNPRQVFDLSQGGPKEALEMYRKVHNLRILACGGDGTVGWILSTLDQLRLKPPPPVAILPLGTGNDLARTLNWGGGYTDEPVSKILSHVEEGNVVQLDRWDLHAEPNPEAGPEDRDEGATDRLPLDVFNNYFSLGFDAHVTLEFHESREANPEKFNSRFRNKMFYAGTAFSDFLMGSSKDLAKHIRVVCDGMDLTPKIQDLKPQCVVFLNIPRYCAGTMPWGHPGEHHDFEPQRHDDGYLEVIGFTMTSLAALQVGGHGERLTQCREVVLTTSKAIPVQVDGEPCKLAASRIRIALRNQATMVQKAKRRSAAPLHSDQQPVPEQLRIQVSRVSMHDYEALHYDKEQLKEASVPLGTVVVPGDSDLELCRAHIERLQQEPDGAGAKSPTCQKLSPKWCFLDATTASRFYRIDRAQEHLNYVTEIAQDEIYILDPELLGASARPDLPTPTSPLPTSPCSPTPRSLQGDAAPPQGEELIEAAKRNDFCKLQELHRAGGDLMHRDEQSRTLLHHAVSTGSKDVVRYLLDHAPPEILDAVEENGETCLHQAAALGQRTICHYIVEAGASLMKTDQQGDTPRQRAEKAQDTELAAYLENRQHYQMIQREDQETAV
Briefly: Human DGKζ kinase activity inhibition assay (ADP-Glo). In kind it is biochemical. The following applies: intermediates (lacking the R2 side chain; comparative); highest test concentration 20 μM; read-out: IC50 values of intermediates in in vitro human DGKζ kinase activity inhibition assays. On the procedure:
Human DGKζ Kinase Activity Inhibition Assay
Human diacylglycerol kinase zeta (DGKζ) inhibitory activity of compounds of the present invention was quantified employing the human DGKζ kinase activity assay as described in the following paragraphs. In essence, the enzyme activity was measured by quantification of the adenosine-di-phosphate (ADP) generated as a co-product of the enzyme reaction via the “ADP-Glo™ Kinase Assay” kit from the company Promega. This detection system works as follows: In a first step the adenosine-tri-phosphate (ATP) not consumed in the kinase reaction is quantitatively converted to cyclic adenosine-mono-phosphate (cAMP) employing an adenylate cyclase (“ADP-Glo-reagent”), then the adenylate cyclase is stopped and the ADP generated in the kinase reaction is converted to ATP, which subsequently generates in a luciferase-based reaction a glow-luminescence signal (“Kinase Detection Reagent”).
C-terminally FLAG-tagged, recombinant full-length human DGKζ (inhouse expressed in baculovirus infected insect cells, purified using anti-Flag pulldown and size exclusion chromatography) was used as enzyme. As an alternative, commercially available enzyme by Carnabio can be used. As substrate for the kinase, 1,2-dioleoyl-sn-glycerol, reconstituted in octyl-β-D-glucopyranoside micelles, was used. […] Subsequently, 22.55 volumes of a 510 mM solution of octyl-β-D-glucopyranoside (Sigma-Aldrich, Cat. #08001-10G) in 50 mM MOPS buffer (pH 7.4) were added, and the mixture was sonicated in an ultrasonic bath for 20 s. Then 35 volumes of 50 mM MOPS buffer (pH 7.4) were added to yield a solution of 0.28 mM 1,2 dioleoyl-sn-glycerol and 200 mM octyl-β-D-glucopyranoside, which was aliquoted, flash-frozen in liquid nitrogen, and stored at −20° C. until use.
For the assay 50 nl of a 100-fold concentrated solution of the test compound in dimethyl sulfoxide (DMSO, Sigma) was pipetted into either a white 1536-well or a white low-volume 384-well microtiter plate (both Greiner Bio-One, Frickenhausen, Germany). […] The concentration of DGKζ was adjusted depending of the activity of the enzyme lot and was chosen appropriate to have the assay in the linear range, a typical concentration is about 0.1 nM. The reaction was stopped by the addition of 2.5 μL of “ADP-Glo-reagent” (1 to 1.5 diluted with water) and the resulting mixture was incubated at 22° C. for 1 h to convert the ATP not consumed in the kinase reaction completely to cAMP. Subsequently 2.5 μl of the “kinase detection reagent” (1.2 fold more concentrated than recommended by the producer) were added, the resulting mixture was incubated at 22° C. for 1 h and then the luminescence measured with a suitable measurement instrument (e.g. Viewlux™ from Perkin-Elmer). The amount of emitted light was taken as a measure for the amount of ADP generated and thereby for the activity of the DGKζ.
The data were normalised (enzyme reaction without inhibitor=0% inhibition, all other assay components but no enzyme=100% inhibition).
A general note: ADP-Glo first removes unused ATP, then detects ADP through luciferase.
For the molecule `Nc1nc(Nc2ccc(F)cc2)sc1C(=O)c1ccccc1` [Example 62], the IC50 was over 20 µM.
On to `Cc1ccc(C(=O)c2sc(Nc3ccc(F)cc3)nc2N)cc1` [Example 64], for which the IC50 was over 20 µM.
On to `Nc1nc(Nc2ccc(F)cc2)sc1C(=O)c1ccc(F)cc1` [Example 65], for which the IC50 was over 20 µM.
Still for that read-out and setting: the result for `Nc1nc(Nc2ccc(F)cc2F)sc1C(=O)c1ccccc1` [Example 66] reads over 20 µM; that for `COc1ccc(Nc2nc(N)c(C(=O)c3ccccc3)s2)cc1` [Example 67], over 20 µM.

Still in this test, the particulars now being: recombinant full-length human DGKζ, 55 μM ATP, 7 μM 1,2-dioleoyl-sn-glycerol, 20 min at 22° C.; read-out: IC50 in vitro human DGKζ kinase activity inhibition assay.
Consider `CC(C(N)=O)N(c1ccc(F)c(F)c1)c1nc(N)c(C(=O)c2ccc(NC(=O)OCc3ccccc3)cc2)s1` (single isomer, unassigned) [Example 167.1, Benzyl N-[4-[4-amino-2-(N-(2-amino-1-methyl-2-oxo-ethyl)-3,4-difluoro-anilino)thiazole-5-carbonyl]phenyl]carbamate], for which the IC50 was found to be 0.003 µM.
As to `CC(C(N)=O)N(c1ccc(F)cc1)c1nc(N)c(C(=O)c2ccc(OCc3ccccc3)cc2)s1` (single isomer, unassigned) [Example 170.2, 2-(N-[4-amino-5-(4-benzyloxybenzoyl)thiazol-2-yl]-4-fluoro-anilino)propanamide], the IC50 was 1 µM.
For `COc1ccc(C(=O)c2sc(N(c3ccc(Cl)c(F)c3)C(C)C(N)=O)nc2N)cn1` (single isomer, unassigned) [Example 172.1, 2-(N-[4-amino-5-(6-methoxypyridine-3-carbonyl)thiazol-2-yl]-4-chloro-3-fluoro-anilino)propanamide], the IC50 worked out at 0.024 µM.
Still for that read-out and setting: the result for `COc1ccc(C(=O)c2sc(N(c3ccc(F)cc3)C(C)C(N)=O)nc2C)cc1` (single isomer, unassigned) [Example 176.1, 2-(4-fluoro-N-[5-(4-methoxybenzoyl)-4-methyl-thiazol-2-yl]anilino)propanamide] reads 0.034 µM.

The term IC50 denotes the concentration that inhibits the measured activity by half.

Source of the values: patent publication US12673927B2, “Substituted aminothiazoles as DGKzeta inhibitors for immune activation” (Deutsches Krebsforschungszentrum, priority 2020, dated 2026).
